In patent publication US11564911B2, “Small molecule dual-inhibitors of TRPV4 and TRPA1 for sanitizing and anesthetizing” (Duke University, priority 2016, dated 2023):

Assays:
[1] = tested on: mice, UVB-exposed hind paws; experiment: UVB-evoked nocifensive behavior after topical GSK205 (Hargreaves, von Frey); assay type: in vivo, mouse
Procedure: Behavioral tests were performed to evaluate the decrease in withdrawal thresholds in response to mechanical von Frey hair or thermal stimuli applied to hind paws. […]. These withdrawal thresholds were ascertained before and after UV exposure. Mice were exposed using a Bio Rad Gel Doc 2000 UV transilluminator (302 nm) for 5 minutes with an exposure of 600 mJ/cm^2, 3-5 days after the last application of tamoxifen/oil.
GSK205 topical treatment: A viscous solution of 68% EtOH/5% glycerol plus 1 mM or 5 mM GSK205 (none for control) was applied to hindpaws by rubbing in 20 μL, applied at time-points 1 hour and again 10 min before UV exposure.
Behavioral tests were performed to evaluate the decrease in withdrawal thresholds in response to mechanical or thermal stimuli applied to hind paws. These withdrawal thresholds were ascertained before and after UVB exposure. Mice were confined by plexi-glass enclosures on top of 25×26 cm Bio Rad Gel Doc 2000 UV transilluminator (302 nm), and otherwise allowed to openly explore this environment. UV-exposure lasted for 5 minutes with an exposure of 600 mJ/cm^2.
Hindpaw mechanical withdrawal thresholds were determined by the automated von Frey hair method, using a 0.5 mm diameter stainless steel filament, part of an automated plantar touch stimulator (Ugo Basile, Modena, Italy). Relevant detail included pre-test acclimatization in a quiet room for 30 min, conducting the test at the same time of day and blinded observers. The stimulus was delivered to the hindpaw, automatically discontinued upon withdrawal, and its intensity recorded automatically. 6-8 trials per animal were conducted, with equal exposure of both hindpaws, leading to an average withdrawal threshold. Results are reported as […], which was calculated by subtracting post-treatment from pre-treatment measurements, expressed as % or relative to 1.0.
Hindpaw thermal (hot) withdrawal thresholds were determined by the well-established Hargreaves' method, using an infra-red thermal stimulation device that delivers the stimulus from underneath the hindpaw combined with automatic shut-off upon withdrawal (Ugo Basile). Stimulation and measurements were conducted as described for von Frey hair testing. A cutoff of 20 sec was set to prevent tissue damage.

[2] = UVB permeation of foot-pad skin; set-up: species or system mouse; settings: topically applied, vs vehicle
Procedure: The UV LED was powered with 20 mA of current, resulting in 500 μW of optical power in a circular focal spot 1.5 mm in diameter, with 70% of the total flux in a 0.5 mm beam radius. The UV optical power transmitted through the sample was detected by a Hamamatsu S127-66BR UV detector, and the output of the photodetector was measured using a Keithley 236 source measure unit. Next, the foot-pad epidermis of a mouse was measured for UV transmission by placing it on a quartz coverslip and exposure to the UV beam. The vehicle-control group was treated with the alcohol and glycerol solution only. Another control group consisted of a commercially-available SPF100 preparation sunscreen in form of a cream, which was applied similar to the vehicle-control. The data for the GSK205 and sunscreen was normalized to this control data.

For CN(CCc1ccc(Nc2nc(-c3cccnc3)cs2)cc1)Cc1ccccc1 [GSK205], which “delay in thermal hypersensitivity after UVB” value ([1]; topical 1 mM GSK205, WT mice) is on record?
Its value is roughly 24 h.

And the “off-target effects on withdrawal behavior” value ([1]; topical 5 mM GSK205, Trpv4−/− mice vs vehicle)?
Its value is “did not elicit off-target effects”.

What about the “sensitivity to von Frey hair mechanical stimulation after UVB” value ([1]; topical 5 mM GSK205, WT mice) of the same molecule?
The value was “significantly reduced sensitivity”.

What about the “thermally-evoked nocifensive behavior after UVB” value ([1]; topical 5 mM GSK205, WT mice) of the same molecule?
The value was “sustained attenuation”.

What about the “UVB permeation of paw-pad skin” value [2] of the same molecule?
The value was “equal UVB permeation”.
